Source: patent publication US4594345A, “Methylflavone-8-carboxylates” (Nippon Shinyaku Co. Ltd., priority 1982, dated 1986)

Key:
[1] = system: passive cutaneous anaphylaxis (PCA); test: Passive cutaneous anaphylaxis assay (PCA) in rats; type: in vivo, rat (Wister strain); conditions: oral 10 mg/kg, one hour before antigen; for inhibition in vivo at 10 mg/kg: Rattus norvegicus, po, 1 h, read-out: PCA Inhibition Ratio %
Procedure: (§1) The effect of the compounds (I) of the present invention in the treatment of asthma and allergic diseases were evaluated by a passive cutaneous anaphylaxis assay (PCA) in rats and by measuring anti-SRS-A action using ileus of guinea pigs.
(i) Antiserum abundant in homocytotropic antibody is prepared by the same method as Tada and Okumura did (cf. Journal of Immunology, volume 106, page 1002, […]). Thus, one mg (calculated as an amount of protein) of DNP-As (2,4-dinitrophenyl-coupled ascaris extract) prepared by methods of Strejan and Campbell (Journal of Immunology, volume 98, page 893, 1971) and of Eisen (Journal of American Chemical Society, volume 85, page 4593, 1953) and […] pertussis vaccine are administered to each paw of Wister strain rats (180 to 200 grams body weights) by dividing the dose by four. Five days later, 0.5 mg of DNP-As is adminstered into muscle of back. Eight days later from the initial immunization, blood is taken from descending aorta under anesthetizing with ether, the resulting serum is stored at -80° C. and is melted before use.
(ii) Effect of tested compounds is investigated as follows:
Anti-serum obtained by the method (i) is diluted with physiological saline solution double by double successively and 0.05 ml of each diluted solution is administered into back of Wister strain rats (140 to 160 grams body weight) subcutaneously. After 72 hours, a solution of 2 mg (calculated as protein) of DNP-As and 2.5 mg of Evand Blue dissolved in 1 ml of physiological saline solution is administered intravenously at a dose of 5 ml/kg. After thirty minutes from antigen solution administration, the animals are killed and diameters of blue spots appeared at the place where antiserum is administered are measured. The PCA test is conducted by the same method as already described using a diluted solutions of antiserum which always show 10 mm or more of spot diameters and the effect of the test compounds is judged. Thus, antiserum diluted solutions are administered to two places in back. Test compounds are administered orally at the dose of 10 mg/kg one hour before administration of antigen solution. From the skin of reacted parts of killed animals, leaked or emitted dyestuff is extracted [cf. Baeck and Steinetz: J. Pharmacol. Exp. Ther., Vol. 131, page 400 (1961)] and the amount of the dyestuff is measured. The inhibition ratio is calculated by the following expression: [formula] in which R' is an amount of dyestuff in the group treated with the test compounds and A is that in the control group.

[2] = system: SRS-A; test: Anti-SRS-A action (SRS-A induced shrinkage of guinea pig ileus); parameters: species or system guinea pig (Hartley strain male); conditions: treated five minutes before SRS-A (20 units), 5 min; for SRS-A Inhibition Ratio % 10^-6 M: 1 µM; for SRS-A Inhibition Ratio % 10^-7 M: 0.1 µM
Procedure: as §1
Anti-SRS-A action (An anti-action against slow reacting substance of anaphylaxie)
Hartley strain male guinea pigs (300 to 350 grams body weight) are killed and 1.0 to 1.5 cm of ileus is immediately excised from ileocecal parts and is suspended in 10 ml of Tyrode solution (95% O2 -5% CO2 saturation) containing 10^-7 g/ml of atropine and 10^-6 g/ml of pyrilamine. SRS-A (20 units) (the amount of SRS-A showing the same shrinkage as 5 ng of histamine is defined as one unit) prepared by using sensitized guinea pig lung is given to cause shrinkage there. Then antagonistic action of test compounds treated five minutes ago against the shrinkage is measured and recorded via isotonic transducer. [formula] in which A' is a height of shrinkage of SRS-A + test compound and A is that of SRS-A.

[3] = system: male mice; test: Acute toxicity, oral, observed for two weeks; type: in vivo; conditions: oral 4000 mg/kg, dead/total
Procedure: Acute toxicity is observed for two weeks by oral adminsitration of 4000 mg/kg of the test compounds to male mice. One group consists of four mice. Numbers of dead mice are shown in numerators.

SMILES | inhibition in vivo at 10 mg/kg [1] [%] | SRS-A Inhibition Ratio % 10^-6 M [2] [%] | SRS-A Inhibition Ratio % 10^-7 M [2] [%] | Lethal Ratio [3] | PCA Inhibition Ratio % ([1]; 10 mg/kg) [%]
CCOC(=O)c1cccc2c(=O)c(C)c(-c3ccccc3OC)oc12 [Example 11, ethyl 2'-methoxy-3-methylflavone-8-carboxylate] | 16.3 | 100 | 35.1 | 0/4 | –
CCNC(=O)c1cccc2c(=O)c(C)c(-c3ccccc3OC)oc12 [Example 13, 2'-methoxy-3-methylflavone-8-carboxylic acid acid N-ethylamide] | 23 | 45.2 | 37.4 | 1/4 | –
CCOc1ccccc1-c1oc2c(C(=O)N(CC)CC)cccc2c(=O)c1C [Example 18, 2'-ethoxy-3-methylflavone-8-carboxylic acid N,N-diethylamide] | 27.4 | 57.1 | 32.1 | 0/4 | –
CCCCCCNC(=O)c1cccc2c(=O)c(C)c(-c3ccc(C(C)C)cc3)oc12 [Example 52, 4'-isopropyl-3-methylflavone-8-carboxylic acid N-n-hexylamide] | 13.5 | 66.1 | 20.7 | – | –
Cc1c(-c2ccc(C(C)C)cc2)oc2c(C(=O)NC3CCCCC3)cccc2c1=O [Example 53, 4'-isopropyl-3-methylflavone-8-carboxylic acid N-cyclohexylamide] | 10.3 | 51.9 | 40.0 | – | –
Cc1c(-c2ccc(C(C)C)cc2)oc2c(C(=O)N3CCCCC3)cccc2c1=O [Example 54, 4'-isopropyl-3-methylflavone-8-carboxylic acid N,N-pentamethylene amide] | 13 | 69.0 | 38.6 | – | –
CCOC(=O)c1cccc2c(=O)c(C)c(-c3ccc(C(C)(C)C)cc3)oc12 [Example 56, ethyl 4'-tertiary butyl-3-methylflavone-8-carboxylate] | 20.2 | 44.9 | 19.0 | – | –
CCN(CC)C(=O)c1cccc2c(=O)c(C)c(-c3ccc(C(C)(C)C)cc3)oc12 [Example 57, 4'-tertiary butyl-3-methylflavone-8-carboxylic acid N,N-diethylamide] | 19.1 | 39.1 | 10.4 | – | –
CCCCCc1ccc(-c2oc3c(C(=O)OCC)cccc3c(=O)c2C)cc1 [Example 59, ethyl 3-methyl-4'-n-pentylflavone-8-carboxylate] | 19.4 | 38.1 | 9.8 | – | –
CCCCCc1ccc(-c2oc3c(C(=O)N(CC)CC)cccc3c(=O)c2C)cc1 [Example 60, 3-methyl-4'-n-pentylflavone-8-carboxylic acid N,N-diethylamide] | 13.4 | 100 | 44.9 | – | –
CCCCCc1ccc(-c2oc3c(C(=O)O)cccc3c(=O)c2C)cc1 [Example 61] | – | 40.7 | 9.4 | – | 22.7
CCCCCCCCc1ccc(-c2oc3c(C(=O)O)cccc3c(=O)c2C)cc1 [Example 62, 3-methyl-4'-n-octylflavone-8-carboxylicacid] | 16.3 | 83.3 | 31.0 | 0/4 | –
CCOC(=O)c1cccc2c(=O)c(C)c(-c3ccccc3Cl)oc12 [Example 67, ethyl 2'-chloro-3-methylflavone-8-carboxylate] | 19.8 | 100 | 42.9 | – | –
CCN(CC)C(=O)c1cccc2c(=O)c(C)c(-c3ccccc3Cl)oc12 [Example 68] | 21.1 | 55.3 | 9.8 | – | –
Cc1c(-c2ccccc2Cl)oc2c(C(=O)OCCO)cccc2c1=O [Example 69, beta-hydroxyethyl 2'-chloro-3-methylflavone-8-carboxylate] | 14.3 | 55.3 | 9.8 | – | –
CCOC(=O)c1cccc2c(=O)c(C)c(-c3ccc(Cl)cc3)oc12 [Example 71, ethyl 4'-chloro-3-methylflavone-8-carboxylate] | 36.9 | 10.3 | 6.0 | – | –
CCN(CC)C(=O)c1cccc2c(=O)c(C)c(-c3ccc(Cl)cc3)oc12 [Example 72, 4'-chloro-3-methylflavone-8-carboxylic acid N,N-diethylamide] | 16.3 | 42.1 | 7.5 | – | –
CCNC(=O)c1cccc2c(=O)c(C)c(-c3ccc(Cl)cc3)oc12 [Example 73, 4'-chloro-3-methylflavone-8-carboxylic acid N-ethylamide] | 19.4 | 29.4 | 6.2 | – | –
Cc1c(-c2ccc(Cl)cc2)oc2c(C(=O)OCCO)cccc2c1=O [Example 74, beta-hydroxyethyl 4'-chloro-3-methylflavone-8-carboxylate] | 17.3 | 52.0 | 18.7 | 0/4 | –
Cc1c(-c2cc(Cl)ccc2Cl)oc2c(C(=O)O)cccc2c1=O [Example 76, 2',5'-dichloro-3-methylflavone-8-carboxylic acid] | 13.2 | 65.2 | 40.0 | – | –
CCOC(=O)c1cccc2c(=O)c(C)c(-c3cc(Cl)ccc3Cl)oc12 [Example 77, ethyl 2',5'-dichloro-3-methylflavone-8-carboxylate] | 16.3 | 67.4 | 6.9 | – | –
CCN(CC)C(=O)c1cccc2c(=O)c(C)c(-c3cc(Cl)ccc3Cl)oc12 [Example 78, 2',5'-dichloro-3-methylflavone-8-carboxylic acid N,N-diethylamide] | 26.3 | 79.3 | 5.6 | – | –
CCOC(=O)c1cccc2c(=O)c(C)c(-c3ccc(Cl)cc3Cl)oc12 [Example 80, ethyl 2',4'-dichloro-3-methylflavone-8-carboxylate] | 21.3 | 61.7 | 17.6 | – | –
CCN(CC)C(=O)c1cccc2c(=O)c(C)c(-c3ccc(Cl)cc3Cl)oc12 [Example 81, 2',4'-dichloro-3-methylflavone-8-carboxylic acid N,N-diethylamide] | 20.4 | 57.1 | 9.8 | – | –
